Earlier results as cited in patent publication US9808468B2, “Formulation of meloxicam” (ICEUTICA PTY LTD., priority 2014, dated 2017).

In the case of Cc1cnc(NC(=O)C2=C(O)c3ccccc3S(=O)(=O)N2C)s1 [Meloxicam, 4-hydroxy-2-methyl-N-(5-methyl-2-thiazolyl)-2H-1,2-benzothiazine-3-carboxamide-1,1-dioxide], the solubility in water is given as “practically insoluble”.
